Data: patent publication US20030045524A1, “Alpha-2-adrenergic agonist/fatty acid compositions” (priority 2001, published 2003)
Like-named read-outs stand apart in the source and are kept apart here.

Assays:
[1] = test system: Intra Ocular Pressure; settings: ion pair formulation of 0.131% bromonidine and 0.126% linoleic acid
Text: The complex is an ion pair formulation of 0.131% bromonidine and 0.126% linoleic acid.

[2] = test system: Rabbit Intraocular Pressure; settings: 0.2% complex; for INTRAOCULAR PRESSURE: mean, n=8
Experimental: In this study, the animals were placed into three groups consisting of a mix of age, size and sex.
One group of animals (both sexes) was used per screening study. The test compound (20 L of 0.2% bromonidine-linoleic acid ion pair complex) was administered to the surface of the cornea using an automatic pipette or an appropriate device.
The following general procedure for administering the test compound employed in this study is presented below:
1. Make sure that the 0.25% proparacaine Opthetic5 mixture (topical local anesthetic), test compounds, and commercially available treats are available.
2. Turn on the Digilab Modular One J Pneuma Tonometer (pneumatonometer) [BioRad, Cambridge, Mass.]; it needs approximately 15 minutes to warm up. Turn on gas supply or air pump.
3. Hold probe vertically with the point tip down and press “calibration check” for “zero”.
4. Wipe the pneumatonometer probe with an alcohol swab, and inspect the tip membrane for holes.
5. Set the external calibration device (air or water manometer) to 25 mm Hg, place the pneumatonometer probe in the calibration device to ensure that it corresponded to 25 2 mm Hg.
6. Obtain a rabbit. Make sure the recording data sheets are at hand.
7. Gently restrain the rabbit via a commercial restrainer or a cotton towel. Measure the pupil diameter with the specialized ruler for each eye and record the values on the sheets provided. If the eyes are too dark to obtain a value by this method, a specialized penlight may be used. Obtain a pupil diameter measurement by shining the penlight on the cornea for one second.
8. Slide the upper eyelid up with the thumb and visually assess and score the degree of ocular surface redness. Record the value for each eye on the sheet provided.
9. Put one drop of 0.25% proparacaine Opthetic5 (50:50 mix of 0.5% proparacaine Opthetic5+Cellufresh5) on the surface of each eye. Wait one or more minutes for ophthetic to take effect.
10. Place the pnematonometer tip on one eye at the site where the curvature of the cornea is greatest. Let the probe shank travel to the black line, not the red line. Persist until a stable reading with the standard deviation below 1.0 is obtained. Repeat the procedure for the contralateral eye. Record the data. (Note: If the animal is upset by the restraint, the reading will be artificially high and cannot be used. Use gentle restraint).
11. At the end of the 0, 6, 24, 30, 48, 54, 72, 78 and 96 hour measurements, use an automatic pipette to apply 20 L of the test compound to the surface of the cornea of one eye. After the 102 hour measurements, the eyes will be washed out with Refresh5 and Prefrin5.
12. Give the animal a treat and return the animal to its cage.
13. Repeat steps 7 to 11 on the remaining animals in the group.
The following general procedure for measuring the effects of the test compound employed in this study is as follows: a reading is conducted at 0, 2, 4, 6, 24, 26, 28, 30, 48, 50, 52, 54, 72, 74, 76, 78, 96, 98, 100, and 102 hours. The pneumatonometer is calibrated before use with a manometer and the probe tip is wiped with an alcohol swab. One drop of 0.25% proparacaine Opthetic5, a corneal anesthetic, is placed on the cornea. Allow sufficient time (approximately 1 minute) for it to anesthetize the cornea before placing the probe on the eye. The eye is gently opened by the person doing the tonometer reading. The probe is placed on the cornea at the point of greatest curvature and a stable reading is obtained. The probe is held parallel to the floor and perpendicular to the line of the rabbit's sight. The reading is repeated until a reasonable reading can be obtained. The piston should be between the red and black lines or at the black line on the probe.
Values are mean S.E.M. n=8.

[3] = test system: monkeys; settings: average of 6 monkeys, 0.2%, scale S=0 to 4
Experimental: The relative sedative effects of bromonidine-linoleic acid (compound 65) were compared to saline (compound 62) and brimonidine tartrate (compound 60). This study involved cross overs and a one-week wash out in between the administration of the various compounds.
As done in a previous experiment, the following method was followed:
1. 6 trained monkeys were placed in chairs and allowed to acclimate for approximately 30 minutes.
2. Individual monkeys were brought into the “testing room” where they were allowed to adjust to the new environment for approximately 2 minutes. […] Sedation scores were recorded on an observation sheet.
3. The monkey was returned to the group of animals assigned to this study.
4. 2 baseline readings were done at T−0.5 and 0 hour. After the 0 hour reading one drop of the test compound was administered to the right eye.
5. Steps 2 & 3 were repeated at T=0.5, 1, 2, 3 and 4 hour.
6. Animals were monitored until they recover from effects of the drug.
5. Scoring of Sedation was based on the following scale:
S=0 Monkey is quiet, but slightly active.
S=1 Monkey is quiet, easy to handle for reading
S=2 Monkey is quiet, relaxed but very low in activity
S=3 Monkey is blinking eyes and yawning
8. The test compounds were coded: 62-Saline, […].
9. Test Compound Administration:
The scoring was conducted for each animal for the different test compounds. The average results are shown on table 1.

Brc1c(NC2=NCCN2)ccc2nccnc12.CCCCC/C=C\C/C=C\CCCCCCCC(=O)O
percent change of Intra Ocular Pressure ([1]; 1 hr after administration at time 0): −10.4% | percent change of Intra Ocular Pressure ([1]; 2 hr after administration at time 0): −16.0% | percent change of Intra Ocular Pressure ([1]; 4 hr after administration at time 0): −09.5% | percent change of Intra Ocular Pressure ([1]; 6 hr after administration at time 0): −09.4% | time for which intraocular pressure in a rabbit's eye is reduced ([2]; after administration): at least 6 hours | duration of the effect of the complex on intraocular pressure ([2]; after administration at time 6 hr): less than 18 hrs | INTRAOCULAR PRESSURE ([2]; time 0 hr (initial, dosed after reading)): 25.8 mmHg | INTRAOCULAR PRESSURE ([2]; time 2 hr): 17.1 mmHg | INTRAOCULAR PRESSURE ([2]; time 4 hr): 21.1 mmHg | INTRAOCULAR PRESSURE ([2]; time 6 hr (dosed after reading)): 23.9 mmHg | INTRAOCULAR PRESSURE ([2]; time 24 hr (dosed after reading)): 25.6 mmHg | INTRAOCULAR PRESSURE ([2]; time 26 hr): 19.9 mmHg | INTRAOCULAR PRESSURE ([2]; time 28 hr): 22.9 mmHg | INTRAOCULAR PRESSURE ([2]; time 30 hr (dosed after reading)): 23.0 mmHg | INTRAOCULAR PRESSURE ([2]; time 48 hr (dosed after reading)): 26.5 mmHg | INTRAOCULAR PRESSURE ([2]; time 50 hr): 20.4 mmHg | INTRAOCULAR PRESSURE ([2]; time 52 hr): 23.4 mmHg | INTRAOCULAR PRESSURE ([2]; time 54 hr (dosed after reading)): 24.1 mmHg | INTRAOCULAR PRESSURE ([2]; time 72 hr (dosed after reading)): 26.8 mmHg | INTRAOCULAR PRESSURE ([2]; time 74 hr): 21.1 mmHg | INTRAOCULAR PRESSURE ([2]; time 76 hr): 23.9 mmHg | INTRAOCULAR PRESSURE ([2]; time 78 hr (dosed after reading)): 25.2 mmHg | INTRAOCULAR PRESSURE ([2]; time 96 hr (dosed after reading)): 27.9 mmHg | INTRAOCULAR PRESSURE ([2]; time 98 hr): 20.1 mmHg | INTRAOCULAR PRESSURE ([2]; time 100 hr): 23.9 mmHg | INTRAOCULAR PRESSURE ([2]; time 102 hr): 25.3 mmHg

brimonidine tartrate [reference compound]
SEDATION SCORE ([3]; time 0 hr (baseline, before dosing)): 0.8 | SEDATION SCORE ([3]; time 0.5 hr after one drop to right eye): 0.8 | SEDATION SCORE ([3]; time 1 hr after one drop to right eye): 1.7 | SEDATION SCORE ([3]; time 2 hr after one drop to right eye): 2.6 | SEDATION SCORE ([3]; time 3 hr after one drop to right eye): 2.5 | SEDATION SCORE ([3]; time 4 hr after one drop to right eye): 2.7 | SEDATION SCORE ([3]; time −0.5 hr (baseline, before dosing)): 0.7
